Laboratory results published in ChEMBL document CHEMBL5113492, “Design, synthesis, and biological evalution of bifunctional inhibitors against Hsp90-HDAC6 interplay” (Eur J Med Chem, 2022).
pIC50: −log10 of the molar value. Active and inactive are the calls of the source. The rule behind the calls is not given here.

Assays:
[1] = molecular target: T1, Protein deacetylase HDAC6 (Homo sapiens) (UniProt Q9UBN7); test: Inhibition of HDAC6 in human NCI-H1975 cells assessed as increase in acetylation of alpha tubulin at 2 uM incubated for 24 hrs by western blot analysis; type: cell-based
T1 sequence (whole entry): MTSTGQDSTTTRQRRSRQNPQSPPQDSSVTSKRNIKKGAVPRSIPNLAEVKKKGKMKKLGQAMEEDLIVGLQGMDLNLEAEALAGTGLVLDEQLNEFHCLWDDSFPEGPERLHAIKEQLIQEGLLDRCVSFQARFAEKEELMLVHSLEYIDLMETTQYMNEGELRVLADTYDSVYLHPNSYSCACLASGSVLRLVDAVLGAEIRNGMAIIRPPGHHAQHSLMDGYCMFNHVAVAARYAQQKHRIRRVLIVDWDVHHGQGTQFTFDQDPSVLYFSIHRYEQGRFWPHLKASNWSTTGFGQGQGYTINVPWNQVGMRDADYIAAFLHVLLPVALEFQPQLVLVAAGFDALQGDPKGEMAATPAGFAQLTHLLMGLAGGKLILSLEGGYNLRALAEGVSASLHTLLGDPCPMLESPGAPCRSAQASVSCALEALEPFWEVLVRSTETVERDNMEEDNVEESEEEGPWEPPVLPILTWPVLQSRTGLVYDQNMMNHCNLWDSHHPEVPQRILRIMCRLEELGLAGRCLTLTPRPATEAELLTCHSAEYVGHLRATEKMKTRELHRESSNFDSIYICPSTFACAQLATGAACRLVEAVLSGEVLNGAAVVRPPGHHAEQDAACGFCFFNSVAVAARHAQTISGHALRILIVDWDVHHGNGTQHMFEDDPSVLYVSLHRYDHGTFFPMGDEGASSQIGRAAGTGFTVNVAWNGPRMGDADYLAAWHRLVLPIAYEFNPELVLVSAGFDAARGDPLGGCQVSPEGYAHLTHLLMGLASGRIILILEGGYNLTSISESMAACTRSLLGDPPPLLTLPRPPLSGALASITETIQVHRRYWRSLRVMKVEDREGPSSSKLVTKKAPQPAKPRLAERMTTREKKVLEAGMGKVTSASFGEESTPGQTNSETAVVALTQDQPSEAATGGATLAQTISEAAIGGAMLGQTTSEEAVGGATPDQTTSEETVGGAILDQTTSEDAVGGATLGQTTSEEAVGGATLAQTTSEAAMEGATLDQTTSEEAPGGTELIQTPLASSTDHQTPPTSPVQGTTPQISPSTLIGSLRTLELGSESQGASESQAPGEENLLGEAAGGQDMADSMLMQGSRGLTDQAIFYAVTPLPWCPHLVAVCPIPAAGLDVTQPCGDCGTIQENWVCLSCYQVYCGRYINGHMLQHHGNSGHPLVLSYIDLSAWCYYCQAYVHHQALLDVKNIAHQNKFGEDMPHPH

NCI-H1975 [2] = test: Antitumor activity against NSG mouse xenografted with human NCI-H1975 cells assessed as reduction on tumor growth at 25 mg/kg,ip measured after 6 weeks; type: functional, organism-based
[3] = molecular target: T1, Protein deacetylase HDAC6 (Homo sapiens); test: Inhibition of HDAC6 in human NCI-H1975 cells assessed as microtubule polymerization at 1 uM incubated for 24 hrs by DAPI staining based immunofluorescence microscopy; type: cell-based
NCI-H1975 [4] = test: Antitumor activity against NSG mouse xenografted with human NCI-H1975 cells assessed as reduction on tumor growth at 50 mg/kg,ip measured after 2 weeks; type: functional, organism-based
[5] = molecular target: T2, Heat shock protein HSP90 (Homo sapiens) (UniProt P07900+P08238); test: Inhibition of HSP90 in human NCI-H1975 cells assessed as downregulation of EGFR expression at 0.05 to 2 uM incubated for 24 hrs by western blot analysis; type: cell-based; conditions: dose 0.05-2 µM, DDE = dose-dependent effect
[6] = Toxicity in NSG mouse xenografted with human NCI-H1975 cells assessed as change in structure of retina at 25 mg/kg,ip measured after 6 weeks by H and E staining based assay; type: organism-based; conditions: in vivo, 1008 h
[7] = Toxicity in NSG mouse xenografted with human NCI-H1975 cells assessed as change in number of retina at 50 mg/kg,ip measured after 6 weeks by H and E staining based assay; type: organism-based; conditions: in vivo, 1008 h
NCI-H1975 [8] = test: Antitumor activity against NSG mouse xenografted with human NCI-H1975 cells assessed as reduction on tumor growth at 25 mg/kg,ip measured after 2 weeks; type: functional, organism-based
[9] = molecular target: T2, Heat shock protein HSP90 (Homo sapiens); test: Inhibition of HSP90 in human NCI-H1975 cells assessed as downregulation of Akt expression at 0.05 to 2 uM incubated for 24 hrs by western blot analysis; type: cell-based; conditions: dose 0.05-2 µM, DDE = dose-dependent effect
[10] = molecular target: T2, Heat shock protein HSP90 (Homo sapiens); test: Inhibition of HSP90 in human NCI-H1975 cells assessed as downregulation of Met expression at 2 uM incubated for 24 hrs by western blot analysis; type: cell-based
[11] = Toxicity in NSG mouse xenografted with human NCI-H1975 cells assessed as histological abnormalities in ocular region at 25 mg/kg,ip measured after 6 weeks by H and E staining based assay; type: organism-based; conditions: in vivo, 1008 h
Histone deacetylase 7 = molecular target: T3, Histone deacetylase 7 (Homo sapiens, UniProt Q8WUI4); test: Inhibition of HDAC7 (unknown origin) using fluorogenic substrate incubated for 30 mins by fluorescence plate reader
T3 sequence (Q8WUI4 whole entry): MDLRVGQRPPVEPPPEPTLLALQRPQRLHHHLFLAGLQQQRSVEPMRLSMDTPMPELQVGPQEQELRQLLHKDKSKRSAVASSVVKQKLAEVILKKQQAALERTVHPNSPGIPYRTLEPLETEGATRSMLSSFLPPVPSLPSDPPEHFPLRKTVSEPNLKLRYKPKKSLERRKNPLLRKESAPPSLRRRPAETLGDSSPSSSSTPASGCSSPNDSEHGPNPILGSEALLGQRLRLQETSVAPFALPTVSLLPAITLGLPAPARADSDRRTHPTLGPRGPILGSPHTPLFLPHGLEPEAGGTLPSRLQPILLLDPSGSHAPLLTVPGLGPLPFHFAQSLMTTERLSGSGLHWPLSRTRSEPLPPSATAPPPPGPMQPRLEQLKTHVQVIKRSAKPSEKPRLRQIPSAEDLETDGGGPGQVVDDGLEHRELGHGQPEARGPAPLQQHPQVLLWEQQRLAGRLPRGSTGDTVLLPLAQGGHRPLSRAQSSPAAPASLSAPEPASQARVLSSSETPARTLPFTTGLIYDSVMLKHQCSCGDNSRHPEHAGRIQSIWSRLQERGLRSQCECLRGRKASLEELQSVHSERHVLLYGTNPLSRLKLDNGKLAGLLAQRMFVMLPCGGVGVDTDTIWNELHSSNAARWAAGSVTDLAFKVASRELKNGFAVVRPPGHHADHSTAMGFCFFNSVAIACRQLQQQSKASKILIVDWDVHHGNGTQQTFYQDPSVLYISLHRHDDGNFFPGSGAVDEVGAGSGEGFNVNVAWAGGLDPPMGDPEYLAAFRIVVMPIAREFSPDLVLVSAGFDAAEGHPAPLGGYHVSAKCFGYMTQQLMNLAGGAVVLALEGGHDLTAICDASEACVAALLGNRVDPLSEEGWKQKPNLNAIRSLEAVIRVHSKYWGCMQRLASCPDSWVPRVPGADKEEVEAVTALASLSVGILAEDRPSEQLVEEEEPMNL

CC(C)c1cc(C(=O)N(C)Cc2ccc(C(=O)NO)cc2)c(O)cc1O
inhibition [1]: Active | Activity (NCI-H1975 [2]): Active | inhibition [3]: Active | Activity (NCI-H1975 [4]): Active | inhibition [5]: Dde | Activity [6]: Non-Toxic | Activity [7]: Non-Toxic | Activity (NCI-H1975 [8]): Active | inhibition [9]: Dde | inhibition [10]: Active | Activity [11]: Non-Toxic | pIC50 (Histone deacetylase 7): 5.77
